{"source": "paper PMC11507523", "about": "“Development of Malate Biosensor-Containing Hydrogels and Living Cell-Based Sensors” (International Journal of Molecular Sciences, 2024)", "target": "T1, CitT (Escherichia coli, UniProt P0AE74)", "T1 construct": "CitT co-expressed with Malon in E. coli BL21 cells", "T1 sequence (P0AE74 1-487)": "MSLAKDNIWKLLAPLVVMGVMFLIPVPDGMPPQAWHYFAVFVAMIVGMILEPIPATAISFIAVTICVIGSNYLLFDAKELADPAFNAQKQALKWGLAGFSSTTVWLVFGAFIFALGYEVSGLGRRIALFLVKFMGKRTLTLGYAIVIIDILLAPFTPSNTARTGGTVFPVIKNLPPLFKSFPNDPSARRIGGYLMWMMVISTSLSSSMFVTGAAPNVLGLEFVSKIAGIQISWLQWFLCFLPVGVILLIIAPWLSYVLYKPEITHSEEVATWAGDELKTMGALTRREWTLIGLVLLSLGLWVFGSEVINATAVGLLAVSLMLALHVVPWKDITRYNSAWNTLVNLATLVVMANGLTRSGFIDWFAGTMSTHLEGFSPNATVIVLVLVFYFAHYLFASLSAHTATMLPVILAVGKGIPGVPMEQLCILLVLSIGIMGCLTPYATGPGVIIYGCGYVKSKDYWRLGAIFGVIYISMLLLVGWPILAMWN", "experiment": "CitT-dependent malate uptake in E. coli, Malon fluorescence by flow cytometry", "type": "cell-based"}
{"smiles": "O=C(O)C[C@H](O)C(=O)O", "note": "[malate]", "values": [{"measurement": "CitT-dependent malate uptake in E. coli, Malon fluorescence by flow cytometry", "value": "Without the CitT transporter, little to no change in fluorescence was observed upon addition of malate"}]}
